Measured values taken from ChEMBL document CHEMBL5726789, “Substituted 6, 7-dialkoxy-3-isoquinoline derivatives as inhibitors of phosphodiesterase 10 (PDE 10A)” (2018).

The molecules below were run against cAMP and cAMP-inhibited cGMP 3',5'-cyclic phosphodiesterase 10A (Homo sapiens, UniProt Q9Y233) (assay: Homogenous Time-Resolved Fluorescence Resonance Energy Transfer (TR-FRET) Technology: The phosphodiesterase assay was developed using the LANCE® cAMP kit (PerkinElmer). The assay buffer contained HBSS with 5 mM HEPES, 0.1% BSA, and 1.5 mM MgCl2, pH 7.4. PDE10A (BPS Bioscience) was used at 200 pg/well (with a specific activity of 3200 pmole/min/μg with assay conditions: 10 mM Tris-HCl, pH 7.4, 10 mM MgCl2, 1 mM MnCl2, 200 μM cAMP, 2.5 kU 5′ nucleotidase, 37° C., 20 min) and PDE4D3 (BPS Bioscience) was used at 100 pg/well (with a specific activity of 32713 pmole/min/μg with assay conditions: 10 mM Tris-HCl, pH 7.4, 10 mM MgCl2, 1 mM MnCl2, 200 μM cAMP, 2.5 kU 5′ nucleotidase, 37° C., 20 min). The Biotin-cAMP tracer, supplied in 10 mmol/L Tris-HCl buffered (pH 8.0) salt solution with 1 mmol/L ethylenediaminetetraacetic acid (EDTA), 0.1% bovine serum albumin (BSA), and 0.05% sodium azide, is used at a dilution of 1/375. The assay detection mixture contained the LANCE Eu-W8044 labeled streptavidin 1/2250 (supplied in 50 mmol/L Tris-HCl buffered (pH 7.8) salt solution with 0.9% sodium chloride (NaCl), 0.1% BSA, and 0.05% sodium azide) and the Alexa Fluor® 647-anti cAMP antibody 1/200 (supplied in 50 mmol/L Tris-HCl buffered (pH 7.8) salt solution with 0.9% NaCl, 0.1% BSA, and 0.05% sodium azide). Chemical compounds were dissolved in DMSO (final concentration 2% (v/v)).).
cAMP and cAMP-inhibited cGMP 3',5'-cyclic phosphodiesterase 10A, sequence (Q9Y233 whole entry): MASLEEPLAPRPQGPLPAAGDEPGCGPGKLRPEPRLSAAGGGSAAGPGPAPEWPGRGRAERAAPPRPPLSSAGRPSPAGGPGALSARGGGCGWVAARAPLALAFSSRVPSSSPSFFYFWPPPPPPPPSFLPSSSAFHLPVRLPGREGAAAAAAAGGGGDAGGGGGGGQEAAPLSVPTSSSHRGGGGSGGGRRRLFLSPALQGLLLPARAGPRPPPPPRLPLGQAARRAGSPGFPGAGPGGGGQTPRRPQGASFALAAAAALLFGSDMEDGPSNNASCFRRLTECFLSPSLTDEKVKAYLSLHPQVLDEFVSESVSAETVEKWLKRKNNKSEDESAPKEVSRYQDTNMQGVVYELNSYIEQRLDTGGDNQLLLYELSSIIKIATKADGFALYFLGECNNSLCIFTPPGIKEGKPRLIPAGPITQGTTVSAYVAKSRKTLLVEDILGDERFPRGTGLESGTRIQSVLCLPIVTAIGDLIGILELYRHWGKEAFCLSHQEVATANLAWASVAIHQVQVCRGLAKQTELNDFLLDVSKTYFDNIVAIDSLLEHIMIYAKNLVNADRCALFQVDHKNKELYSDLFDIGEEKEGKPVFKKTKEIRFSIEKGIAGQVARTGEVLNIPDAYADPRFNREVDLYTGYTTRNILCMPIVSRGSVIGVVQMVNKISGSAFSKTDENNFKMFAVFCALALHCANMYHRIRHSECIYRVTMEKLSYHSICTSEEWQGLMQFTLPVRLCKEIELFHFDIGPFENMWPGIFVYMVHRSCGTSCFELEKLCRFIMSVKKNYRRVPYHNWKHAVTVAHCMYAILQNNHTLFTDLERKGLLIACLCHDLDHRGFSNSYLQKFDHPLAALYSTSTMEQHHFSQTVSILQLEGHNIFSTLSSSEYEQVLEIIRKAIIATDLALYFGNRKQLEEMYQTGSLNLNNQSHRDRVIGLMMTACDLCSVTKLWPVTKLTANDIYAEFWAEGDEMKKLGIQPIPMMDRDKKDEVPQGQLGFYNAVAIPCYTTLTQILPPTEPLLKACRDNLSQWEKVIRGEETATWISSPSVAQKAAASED

Going from `CCCc1ncc(Cc2ccc3cccc(OC(C)(C)C(N)=O)c3n2)c2cc(OC)c(OC)cc12` to `CCCc1ncc(Cc2cc3cc(OC)ccc3nc2OCC#N)c2cc(OC)c(OC)cc12`, the IC50 rises from 59 nM to 158 nM (2.7-fold). The first is the more potent here.

In the case of `CCn1c2ccccc2c2cc(Cc3cncc4cc(OC)c(OC)cc34)ccc21`, the IC50 is reported as 26 nM.
